Molecular target: T1, PDE2 (Bos taurus, UniProt P14099)
T1 sequence (P14099 1-921): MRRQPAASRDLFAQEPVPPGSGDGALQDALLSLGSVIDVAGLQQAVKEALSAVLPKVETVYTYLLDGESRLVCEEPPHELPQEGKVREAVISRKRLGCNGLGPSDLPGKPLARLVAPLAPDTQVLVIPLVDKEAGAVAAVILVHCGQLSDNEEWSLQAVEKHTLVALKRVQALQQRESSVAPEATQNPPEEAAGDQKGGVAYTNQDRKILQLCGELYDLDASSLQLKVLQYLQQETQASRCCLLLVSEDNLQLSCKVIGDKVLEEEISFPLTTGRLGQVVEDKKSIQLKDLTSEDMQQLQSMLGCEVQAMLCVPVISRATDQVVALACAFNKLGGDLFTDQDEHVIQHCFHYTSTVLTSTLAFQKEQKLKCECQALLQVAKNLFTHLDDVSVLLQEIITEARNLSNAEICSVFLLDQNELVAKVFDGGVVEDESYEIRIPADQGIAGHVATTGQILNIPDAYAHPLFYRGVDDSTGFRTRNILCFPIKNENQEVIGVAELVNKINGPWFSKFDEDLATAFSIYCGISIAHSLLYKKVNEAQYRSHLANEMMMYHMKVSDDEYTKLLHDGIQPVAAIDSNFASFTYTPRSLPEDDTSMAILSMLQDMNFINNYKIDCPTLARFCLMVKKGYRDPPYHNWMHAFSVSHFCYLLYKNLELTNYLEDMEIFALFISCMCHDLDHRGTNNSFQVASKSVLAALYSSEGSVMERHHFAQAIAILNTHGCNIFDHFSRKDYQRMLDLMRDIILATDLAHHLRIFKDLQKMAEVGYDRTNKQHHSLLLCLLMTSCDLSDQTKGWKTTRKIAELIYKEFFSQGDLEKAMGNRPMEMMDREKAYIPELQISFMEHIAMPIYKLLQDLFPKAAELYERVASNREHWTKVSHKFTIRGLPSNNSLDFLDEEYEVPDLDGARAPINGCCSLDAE
Test: Radioenzymatic phosphodiesterase assay: PDE2 inhibition
Type: biochemical, bovine
Settings: Table 1; 10 μM test compound; read-out: PDE2 percentage of inhibition at 10 μM
Experimental: Nucleoside radioactivity was determined by liquid scintillation.

SMILES	inhibition at 10 µM
CN1C(=O)CN=C(c2cccc([N+](=O)[O-])c2)c2cc(-c3ccccc3)ccc21 [Example 65, 1-Methyl-5-(3-nitro-phenyl)-7-phenyl-1,3-dihydro-benzo[e][1,4]diazepin-2-one]	78%
CN1C(=O)CN=C(c2cccc(N)c2)c2cc(-c3ccccc3)ccc21 [Example 68, 5-(3-Amino-phenyl)-1-methyl-7-phenyl-1,3-dihydro-benzo[e][1,4]diazepin-2-one]	52%
COc1ccccc1-c1cc2c(cc1Oc1ccccc1)N(C)C(=O)CN=C2c1cccc(C(N)=O)c1 [Example 74, 3-[7-(2-Methoxy-phenyl)-1-methyl-2-oxo-8-phenoxy-2,3-dihydro-1H-benzo[e][1,4]diazepin-5-yl]-benzamide]	98%
COc1ccc(C2=NCC(=O)Nc3cc(OC)c(-c4ccccc4)cc32)cc1 [Example 76, 5-(4-Methoxy-phenyl)-8-methoxy-7-phenyl-1,3-dihydro-benzo[e][1,4]diazepin-2-one]	91%
COc1cccc(C2=NCC(=O)N(C)c3ccc(-c4ccccc4)cc32)c1 [Example 79, 5-(3-Methoxy-phenyl)-1-methyl-7-phenyl-1,3-dihydro-benzo[e][1,4]diazepin-2-one]	84%
COc1ccc(Cl)cc1-c1ccc2c(c1)C(c1cccc(C#N)c1)=NCC(=O)N2C [Example 81, 3-[7-(5-Chloro,2-methoxy-phenyl)-1-methyl-2-oxo-2,3-dihydro-1H-benzo[e][1,4]diazepin-5-yl]-benzonitrile]	22%
COc1cccc(Cl)c1-c1ccc2c(c1)C(c1cccc(C#N)c1)=NCC(=O)N2C [Example 82, 3-[7-(2-Chloro,6-methoxy-phenyl)-1-methyl-2-oxo-2,3-dihydro-1H-benzo[e][1,4]diazepin-5-yl]-benzonitrile]	92%
CN1C(=O)CN=C(c2cccc(C(N)=O)c2)c2cc(-c3ccccc3)c(OC(F)(F)F)cc21 [Example 87, 3-(1-Methyl-2-oxo-7-phenyl-8-trifluoromethoxy-2,3-dihydro-1H-benzo[e][1,4]diazepin-5-yl)-benzamide]	93%
CN1C(=O)CN=C(c2cccc(C(N)=O)c2)c2cc(-c3ccccc3Oc3ccccc3)ccc21 [Example 91, 3-[1-Methyl-2-oxo-7-(2-phenoxy-phenyl)-2,3-dihydro-1H-benzo[e][1,4]diazepin-5-yl]-benzamide]	96%

Same assay, conditions: read-out: PDE2 percentage of inhibition at 10 μM

SMILES	inhibition at 10 µM
CCCCC#Cc1cccc(C2=NCC(=O)N(C)c3cc(OC)c(-c4ccccc4)cc32)c1 [Example 66, 5-(3-Hex-1-ynyl-phenyl)-8-methoxy-1-methyl-7-phenyl-1,3-dihydro-benzo[e][1,4]diazepin-2-one]	86%
COc1cc2c(cc1-c1ccccc1)C(c1cccc(C#CCNC(=O)OC(C)(C)C)c1)=NCC(=O)N2C [Example 67, {3-[3-(8-Methoxy-1-methyl-2-oxo-7-phenyl-2,3-dihydro-1H-benzo[e][1,4]diazepin-5-yl)-phenyl]-prop-2-ynyl}-carbamic acid tert-butyl ester]	60%
CN1C(=O)CN=C(c2cccc(C#N)c2)c2cc(-c3ccccc3)c(Oc3ccccc3)cc21 [Example 69, 3-(1-Methyl-2-oxo-8-phenoxy-7-phenyl-2,3-dihydro-1H-benzo[e][1,4]diazepin-5-yl)-benzonitrile]	4%
COc1ccccc1-c1cc2c(cc1Oc1ccccc1)N(C)C(=O)CN=C2c1cccc(C#N)c1 [Example 70, 3-[7-(2-Methoxy-phenyl)-1-methyl-2-oxo-8-phenoxy-2,3-dihydro-1H-benzo[e][1,4]diazepin-5-yl]-benzonitrile]	95%
CN1C(=O)CN=C(c2cccc(C#N)c2)c2cc(-c3ccccc3Cl)c(Oc3ccccc3)cc21 [Example 71, 3-[7-(2-Chloro-phenyl)-1-methyl-2-oxo-8-phenoxy-2,3-dihydro-1H-benzo[e][1,4]diazepin-5-yl]-benzonitrile]	82%
CN1C(=O)CN=C(c2cccc(C(N)=O)c2)c2cc(-c3ccccc3)c(Oc3ccccc3)cc21 [Example 72, 3-(1-Methyl-2-oxo-8-phenoxy-7-phenyl-2,3-dihydro-1H-benzo[e][1,4]diazepin-5-yl)-benzamide]	28%
CN1C(=O)CN=C(c2cccc(C(N)=O)c2)c2cc(-c3ccccc3Cl)c(Oc3ccccc3)cc21 [Example 73, 3-[7-(2-Chloro-phenyl)-1-methyl-2-oxo-8-phenoxy-2,3-dihydro-1H-benzo[e][1,4]diazepin-5-yl]-benzamide]	96%
COc1cccc(OC)c1-c1ccc2c(c1)C(c1ccc(C)c([N+](=O)[O-])c1)=NCC(=O)N2C [Example 77, 7-(2,6-Dimethoxy-phenyl)-1-methyl-5-(4-methyl-3-nitro-phenyl)-1,3-dihydro-benzo[e][1,4]diazepin-2-one]	99%
COc1cc2c(cc1-c1ccccc1OC(C)C)C(c1cccc(C(N)=O)c1)=NCC(=O)N2C [Example 78, 3-[7-(2-Isopropoxy-phenyl)-8-methoxy-1-methyl-2-oxo-2,3-dihydro-1H-benzo[e][1,4]diazepin-5-yl]-benzamide]	97%
N#Cc1cccc(C2=NCC(=O)Nc3cc(OC(F)(F)F)c(-c4ccccc4)cc32)c1 [Example 85, 3-(2-Oxo-7-phenyl-8-trifluoromethoxy-2,3-dihydro-1H-benzo[e][1,4]diazepin-5-yl)-benzonitrile]	70%
CN1C(=O)CN=C(c2cccc(C#N)c2)c2cc(-c3ccccc3)c(OC(F)(F)F)cc21 [Example 86, 3-(1-Methyl-2-oxo-7-phenyl-8-trifluoromethoxy-2,3-dihydro-1H-benzo[e][1,4]diazepin-5-yl)-benzonitrile]	85%
CN1C(=O)CN=C(c2cccc(C#N)c2)c2cc(-c3ccccc3Oc3ccccc3)ccc21 [Example 88, 3-[1-Methyl-2-oxo-7-(2-phenoxy-phenyl)-2,3-dihydro-1H-benzo[e][1,4]diazepin-5-yl]-benzonitrile]	89%
COc1cc2c(cc1-c1c(OC)cccc1OC)C(c1cccc(C#N)c1)=NCC(=O)N2C [Example 89, 3-[7-(2,6-Dimethoxy-phenyl)-8-methoxy-1-methyl-2-oxo-2,3-dihydro-1H-benzo[e][1,4]diazepin-5-yl]-benzonitrile]	99%
COc1cc2c(cc1-c1ccccc1Oc1ccccc1)C(c1cccc(C#N)c1)=NCC(=O)N2C [Example 90, 3-[8-Methoxy-1-methyl-2-oxo-7-(2-phenoxy-phenyl)-2,3-dihydro-1H-benzo[e][1,4]diazepin-5-yl]-benzonitrile]	98%
COc1cc2c(cc1-c1ccccc1)C(c1cccc(CCCCc3ccccc3)c1)=NCC(=O)N2C [Example 94, 8-Methoxy-1-methyl-7-phenyl-5-[3-(4-phenyl-butyl)-phenyl]-1,3-dihydro-benzo[e][1,4]diazepin-2-one]	79%
COCC#Cc1cccc(C2=NCC(=O)N(C)c3cc(OC)c(-c4ccccc4)cc32)c1 [Example 95, 8-Methoxy-5-[3-(3-methoxy-prop-1-ynyl)-phenyl]-1-methyl-7-phenyl-1,3-dihydro-benzo[e][1,4]diazepin-2-one]	89%
COc1cc2c(cc1-c1ccccc1)C(c1ccc(C#CCNC(=O)OC(C)(C)C)cc1)=NCC(=O)N2C [Example 96, {3-[4-(8-Methoxy-1-methyl-2-oxo-7-phenyl-2,3-dihydro-1H-benzo[e][1,4]diazepin-5-yl)-phenyl]-prop-2-ynyl}-carbamic acid tert-butyl ester]	21%
COc1cc2c(cc1-c1ccccc1)C(c1ccc(C#Cc3ccccc3)cc1)=NCC(=O)N2C [Example 97, 8-Methoxy-1-methyl-7-phenyl-5-(4-phenylethynyl-phenyl)-1,3-dihydro-benzo[e][1,4]diazepin-2-one]	45%
COCC#Cc1ccc(C2=NCC(=O)N(C)c3cc(OC)c(-c4ccccc4)cc32)cc1 [Example 98, 8-Methoxy-5-[4-(3-methoxy-prop-1-ynyl)-phenyl]-1-methyl-7-phenyl-1,3-dihydro-benzo[e][1,4]diazepin-2-one]	80%
COc1cccc(OC)c1-c1ccc2c(c1)C(c1ccc(Cl)c(Cl)c1)=NCC(=O)N2C [Example 99, 5-(3,4-Dichloro-phenyl)-7-(2,6-dimethoxy-phenyl)-1-methyl-1,3-dihydro-benzo[e][1,4]diazepin-2-one]	98%
COc1ccc(C2=NCC(=O)N(C)c3ccc(-c4c(OC)cccc4OC)cc32)cc1OC [Example 101, 5-(3,4-Dimethoxy-phenyl)-7-(2,6-dimethoxy-phenyl)-1-methyl-1,3-dihydro-benzo[e][1,4]diazepin-2-one]	99%
